Results reported in patent US12583858B2 (Genentech, Inc., priority 2015, dated 2026).

target: T1, TDO2 (Homo sapiens, UniProt P48775); assay: TDO2 cell assay (NFK GreenScreen, SW48 cells); format: cell-based; conditions: SW48 cells (high TDO expressing), 200 uM tryptophan, 24 hours; Table 3; read-out: TDO2 Cell Fluor EC50
T1 construct: decreased levels of NFK in SW48 cells (high TDO expressing cells)
T1 sequence (P48775 whole entry): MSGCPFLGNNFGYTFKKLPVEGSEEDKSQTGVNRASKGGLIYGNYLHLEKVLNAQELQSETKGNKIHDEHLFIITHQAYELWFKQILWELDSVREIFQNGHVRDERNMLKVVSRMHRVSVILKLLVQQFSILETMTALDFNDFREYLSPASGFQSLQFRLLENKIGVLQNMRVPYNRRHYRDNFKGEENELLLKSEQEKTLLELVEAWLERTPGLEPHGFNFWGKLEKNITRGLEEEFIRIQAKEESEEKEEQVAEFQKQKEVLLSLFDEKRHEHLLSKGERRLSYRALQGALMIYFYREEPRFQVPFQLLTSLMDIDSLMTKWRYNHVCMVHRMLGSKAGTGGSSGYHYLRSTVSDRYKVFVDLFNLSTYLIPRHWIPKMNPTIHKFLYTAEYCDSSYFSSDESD
Experimental: The NFK GreenScreen™ (NTRC, Netherlands) uses a specific chemical probe that binds to N-Formylkynurenine (NFK), a product of tryptophan catabolism facilitated by IDO or TDO and causes fluorescence at 510 nm when excited at 410 nm. […] The assay is multiplexed with Cell Titer-Glo® (Promega) to determine if compounds are cytotoxic. […] Cells are counted on a Vi-Cell (Beckman Coulter). SW48 cells are diluted to 1×10^6 cells/ml in assay media. A172 cells are diluted to 0.24×10^6 cells/ml in assay media. […] 5 ul of assay media containing 1.2 mM tryptophan are added to the SW48 cells for a final concentration of 200 uM tryptophan in each well. 5 ul of assay media containing 600 uM tryptophan and 600 ng/ml IFNγ are added to the A172 cells for a final concentration of 100 uM tryptophan and 100 ng/ml IFNγ in each well. The final DMSO concentration is 0.5%. Cell plates are placed at room temperature in a closed TC hood with the blower off to allow cells to settle for approximately 30 min. Plates are then moved to an incubator set at 37° C., 5% CO2 for 24 hours. After the 24 hour compound incubation, 8 ul of NFK green reagent is added to each well with a Multidrop™ Combi dispenser (Thermo Scientific). Plates are sealed and incubated at 37° C., 5% CO2 for 5 hours, then read on a PHERAstar® (BMG labtech). Data are analyzed by normalizing to DMSO and high inhibitor controls. After the plates have been read for NFK green, 25 ul of Cell Titer-Glo® (Promega) are added to each well, incubated for 15 minutes at room temperature, and read on the Envision (Perkin Elmer). Cell Titer-Glo data are analyzed by normalizing to the DMSO controls. Four-parameter curve fitting is used and EC50 data are reported.

Q: CS(=O)(=O)c1ccc2c(c1)OCC(C1c3ccccc3-c3cncn31)C2O (single isomer, unassigned) [Example 91f] was tested. Which EC50 did it give?
A: The EC50 was 0.81 µM.

Q: CS(=O)(=O)c1ccc2c(c1)OCC(C1c3ccccc3-c3cncn31)C2O (single isomer, unassigned) [Example 91g] was tested. Which EC50 did it give?
A: The EC50 was 2.3 µM.

Q: For CS(=O)(=O)c1ccc2c(c1)OCC(C1c3ccccc3-c3cncn31)C2O (single isomer, unassigned) [Example 91h], which EC50 is on record?
A: The EC50 was over 25 µM.

Q: CS(=O)(=O)N1CCC(O)C(C2c3ccccc3-c3cncn32)CC1 (single isomer, unassigned) [Example 92a] was tested. Which EC50 did it give?
A: The EC50 was 1.2 µM.

Q: How did the EC50 turn out when CS(=O)(=O)N1CCC(O)C(C2c3ccccc3-c3cncn32)CC1 (single isomer, unassigned) [Example 92b] was run?
A: Its EC50 is 8.6 µM.

Q: CS(=O)(=O)N1CCC(O)C(C2c3ccccc3-c3cncn32)CC1 (single isomer, unassigned) [Example 92c] was tested. Which EC50 did it give?
A: Its EC50 is 18 µM.

Q: With CS(=O)(=O)N1CCC(O)C(C2c3ccccc3-c3cncn32)CC1 (single isomer, unassigned) [Example 92d] as the compound, how does the EC50 read?
A: Its EC50 is 0.24 µM.

Q: How did the EC50 turn out when Cn1ncc2c1CCC(C1c3ccccc3-c3cncn31)C2O (single isomer, unassigned) [Example 93b] was run?
A: Its EC50 is 5.5 µM.

Q: For Cn1ncc2c1CCC(C1c3ccccc3-c3cncn31)C2O (single isomer, unassigned) [Example 93c], which EC50 is on record?
A: Its EC50 is 1.4 µM.

Q: Which EC50 does the source give for Cn1ncc2c1CCC(C1c3ccccc3-c3cncn31)C2O (single isomer, unassigned) [Example 93d] here?
A: Its EC50 is 1.4 µM.

Q: Cn1ncc2c1CCC(C1c3ccccc3-c3cncn31)C2O (single isomer, unassigned) [Example 93e] was tested. Which EC50 did it give?
A: Its EC50 is 4.3 µM.

Q: For Cn1ncc2c1CCC(C1c3ccccc3-c3cncn31)C2O (single isomer, unassigned) [Example 93f], which EC50 is on record?
A: The EC50 was 0.81 µM.

Q: Cn1ncc2c1CCC(C1c3ccccc3-c3cncn31)C2O (single isomer, unassigned) [Example 93g] was tested. Which EC50 did it give?
A: Its EC50 is over 25 µM.

Q: With OC1c2cncnc2CCC1C1c2ccccc2-c2cncn21 (single isomer, unassigned) [Example 94a] as the compound, how does the EC50 read?
A: Its EC50 is 2.3 µM.

Q: For OC1c2cncnc2CCC1C1c2ccccc2-c2cncn21 (single isomer, unassigned) [Example 94b], which EC50 is on record?
A: The EC50 was 3.1 µM.

Q: With OC1c2cncnc2CCC1C1c2ccccc2-c2cncn21 (single isomer, unassigned) [Example 94d] as the compound, how does the EC50 read?
A: Its EC50 is 0.13 µM.

Q: OC1c2cncnc2CCC1C1c2ccccc2-c2cncn21 (single isomer, unassigned) [Example 94e] was tested. Which EC50 did it give?
A: Its EC50 is 2 µM.

Q: How did the EC50 turn out when OC1c2cncnc2CCC1C1c2ccccc2-c2cncn21 (single isomer, unassigned) [Example 94f] was run?
A: Its EC50 is 12 µM.

Q: How did the EC50 turn out when OC1c2cncnc2CCC1C1c2ccccc2-c2cncn21 (single isomer, unassigned) [Example 94g] was run?
A: Its EC50 is 14 µM.

Q: Which EC50 does the source give for OC1c2cncnc2CCC1C1c2ccccc2-c2cncn21 (single isomer, unassigned) [Example 94h] here?
A: The EC50 was over 25 µM.

Q: Which EC50 does the source give for OC1c2cc(CF)nn2CCC1C1c2ccccc2-c2cncn21 (single isomer, unassigned) [Example 95a] here?
A: The EC50 was over 25 µM.

Q: With OC1c2cc(CF)nn2CCC1C1c2ccccc2-c2cncn21 (single isomer, unassigned) [Example 95b] as the compound, how does the EC50 read?
A: The EC50 was 0.24 µM.

Q: How did the EC50 turn out when CN(C)C(=O)c1ccc2c(c1)CCC(C1c3ccccc3-c3cncn31)C2O (single isomer, unassigned) [Example 98a] was run?
A: The EC50 was 0.073 µM.

Q: Which EC50 does the source give for CN(C)C(=O)c1ccc2c(c1)CCC(C1c3ccccc3-c3cncn31)C2O (single isomer, unassigned) [Example 98b] here?
A: The EC50 was 8.7 µM.

Q: Which EC50 does the source give for CN(C)C(=O)c1ccc2c(c1)CCC(C1c3ccccc3-c3cncn31)C2O (single isomer, unassigned) [Example 98c] here?
A: The EC50 was 0.18 µM.

Q: With CN(C)C(=O)c1ccc2c(c1)CCC(C1c3ccccc3-c3cncn31)C2O (single isomer, unassigned) [Example 98d] as the compound, how does the EC50 read?
A: Its EC50 is 9.5 µM.

Q: Which EC50 does the source give for CN(C)C(=O)c1ccc2c(c1)CCC(C1c3ccccc3-c3cncn31)C2O (single isomer, unassigned) [Example 98e] here?
A: The EC50 was 22 µM.

Q: Which EC50 does the source give for CN(C)C(=O)c1ccc2c(c1)CCC(C1c3ccccc3-c3cncn31)C2O (single isomer, unassigned) [Example 98f] here?
A: Its EC50 is 2.5 µM.

Q: Which EC50 does the source give for CN(C)C(=O)c1ccc2c(c1)CCC(C1c3ccccc3-c3cncn31)C2O (single isomer, unassigned) [Example 98g] here?
A: The EC50 was 0.86 µM.

Q: With CN(C)C(=O)c1ccc2c(c1)CCC(C1c3ccccc3-c3cncn31)C2O (single isomer, unassigned) [Example 98h] as the compound, how does the EC50 read?
A: The EC50 was 9.8 µM.

Q: How did the EC50 turn out when OC1COCCC1C1c2cccc(F)c2-c2cncn21 (single isomer, unassigned) [Example 99a] was run?
A: Its EC50 is over 25 µM.

Q: For OC1COCCC1C1c2cccc(F)c2-c2cncn21 (single isomer, unassigned) [Example 99b], which EC50 is on record?
A: Its EC50 is over 25 µM.

Q: For OC1COCCC1C1c2cccc(F)c2-c2cncn21 (single isomer, unassigned) [Example 99c], which EC50 is on record?
A: Its EC50 is over 25 µM.

Q: How did the EC50 turn out when OC1COCCC1C1c2cccc(F)c2-c2cncn21 (single isomer, unassigned) [Example 99d] was run?
A: Its EC50 is 0.73 µM.

Q: How did the EC50 turn out when NS(=O)(=O)c1ccc2c(c1)CCC(C1c3ccccc3-c3cncn31)C2O (single isomer, unassigned) [Example 100a] was run?
A: The EC50 was 0.12 µM.

Q: For NS(=O)(=O)c1ccc2c(c1)CCC(C1c3ccccc3-c3cncn31)C2O (single isomer, unassigned) [Example 100b], which EC50 is on record?
A: Its EC50 is 1.3 µM.

Q: With NS(=O)(=O)c1ccc2c(c1)CCC(C1c3ccccc3-c3cncn31)C2O (single isomer, unassigned) [Example 100c] as the compound, how does the EC50 read?
A: Its EC50 is 7.4 µM.

Q: For NS(=O)(=O)c1ccc2c(c1)CCC(C1c3ccccc3-c3cncn31)C2O (single isomer, unassigned) [Example 100d], which EC50 is on record?
A: Its EC50 is over 25 µM.

Q: For NS(=O)(=O)c1ccc2c(c1)CCC(C1c3ccccc3-c3cncn31)C2O (single isomer, unassigned) [Example 100e], which EC50 is on record?
A: Its EC50 is 1.3 µM.

Q: For NS(=O)(=O)c1ccc2c(c1)CCC(C1c3ccccc3-c3cncn31)C2O (single isomer, unassigned) [Example 100f], which EC50 is on record?
A: Its EC50 is 15 µM.

Q: Which EC50 does the source give for NS(=O)(=O)c1ccc2c(c1)CCC(C1c3ccccc3-c3cncn31)C2O (single isomer, unassigned) [Example 100h] here?
A: The EC50 was 4.8 µM.

Q: With NS(=O)(=O)N1CCC(O)C(C2c3ccccc3-c3cncn32)CC1 (single isomer, unassigned) [Example 101a, 4-hydroxy-5-(5H-imidazo[5,1-a]isoindol-5-yl)azepane-1-sulfonamide] as the compound, how does the EC50 read?
A: The EC50 was over 25 µM.

Q: With NS(=O)(=O)N1CCC(O)C(C2c3ccccc3-c3cncn32)CC1 (single isomer, unassigned) [Example 101b, 4-hydroxy-5-(5H-imidazo[5,1-a]isoindol-5-yl)azepane-1-sulfonamide] as the compound, how does the EC50 read?
A: The EC50 was 5.1 µM.

Q: Which EC50 does the source give for NS(=O)(=O)N1CCC(O)C(C2c3ccccc3-c3cncn32)CC1 (single isomer, unassigned) [Example 101c, 4-hydroxy-5-(5H-imidazo[5,1-a]isoindol-5-yl)azepane-1-sulfonamide] here?
A: Its EC50 is over 25 µM.

Q: For OC1c2ccccc2CCC1C1c2ccccc2-c2cncn21 (single isomer, unassigned) [Example 102a], which EC50 is on record?
A: Its EC50 is 0.072 µM.

Q: How did the EC50 turn out when OC1c2ccccc2CCC1C1c2ccccc2-c2cncn21 (single isomer, unassigned) [Example 102b] was run?
A: Its EC50 is 19 µM.

Q: With OC1c2ccccc2CCC1C1c2ccccc2-c2cncn21 (single isomer, unassigned) [Example 102c] as the compound, how does the EC50 read?
A: The EC50 was 0.32 µM.

Q: Which EC50 does the source give for OC1c2ccccc2CCC1C1c2ccccc2-c2cncn21 (single isomer, unassigned) [Example 102d] here?
A: Its EC50 is 11 µM.

Q: Which EC50 does the source give for O[C@@H]1c2ccccc2CC[C@H]1[C@@H]1c2ccccc2-c2cncn21 (single isomer, unassigned) [Example 102g] here?
A: Its EC50 is 0.35 µM.

Q: O[C@@H]1c2ccccc2CC[C@H]1[C@@H]1c2ccccc2-c2cncn21 (single isomer, unassigned) [Example 102h] was tested. Which EC50 did it give?
A: The EC50 was 8.4 µM.

Q: NC(=O)c1ccc2c(n1)CCC(C1c3ccccc3-c3cncn31)C2O (single isomer, unassigned) [Example 104a] was tested. Which EC50 did it give?
A: The EC50 was 2.2 µM.

Q: With NC(=O)c1ccc2c(n1)CCC(C1c3ccccc3-c3cncn31)C2O (single isomer, unassigned) [Example 104b] as the compound, how does the EC50 read?
A: The EC50 was 0.2 µM.

Q: NC(=O)c1ccc2c(n1)CCC(C1c3ccccc3-c3cncn31)C2O (single isomer, unassigned) [Example 104c] was tested. Which EC50 did it give?
A: The EC50 was 23 µM.

Q: With NC(=O)c1ccc2c(n1)CCC(C1c3ccccc3-c3cncn31)C2O (single isomer, unassigned) [Example 104d] as the compound, how does the EC50 read?
A: Its EC50 is 14 µM.

Q: For NC(=O)c1ccc2c(n1)CCC(C1c3ccccc3-c3cncn31)C2O (single isomer, unassigned) [Example 104e], which EC50 is on record?
A: Its EC50 is 3.4 µM.

Q: With NC(=O)c1ccc2c(n1)CCC(C1c3ccccc3-c3cncn31)C2O (single isomer, unassigned) [Example 104f] as the compound, how does the EC50 read?
A: Its EC50 is 8.6 µM.

Q: With NC(=O)c1ccc2c(n1)CCC(C1c3ccccc3-c3cncn31)C2O (single isomer, unassigned) [Example 104g] as the compound, how does the EC50 read?
A: Its EC50 is 0.33 µM.

Q: With NC(=O)c1ccc2c(n1)CCC(C1c3ccccc3-c3cncn31)C2O (single isomer, unassigned) [Example 104h] as the compound, how does the EC50 read?
A: Its EC50 is 20 µM.

Q: Which EC50 does the source give for NS(=O)(=O)c1ccc2c(c1)C(O)C(C1c3ccccc3-c3cncn31)CC2 (single isomer, unassigned) [Example 105a] here?
A: The EC50 was 12 µM.

Q: Which EC50 does the source give for NS(=O)(=O)c1ccc2c(c1)C(O)C(C1c3ccccc3-c3cncn31)CC2 (single isomer, unassigned) [Example 105b] here?
A: The EC50 was 8.6 µM.

Q: Which EC50 does the source give for NS(=O)(=O)c1ccc2c(c1)C(O)C(C1c3ccccc3-c3cncn31)CC2 (single isomer, unassigned) [Example 105c] here?
A: Its EC50 is 0.077 µM.

Q: With NS(=O)(=O)c1ccc2c(c1)C(O)C(C1c3ccccc3-c3cncn31)CC2 (single isomer, unassigned) [Example 105d] as the compound, how does the EC50 read?
A: The EC50 was 0.044 µM.

Q: Which EC50 does the source give for NS(=O)(=O)c1ccc2c(c1)C(O)C(C1c3ccccc3-c3cncn31)CC2 (single isomer, unassigned) [Example 105e] here?
A: Its EC50 is 0.46 µM.

Q: How did the EC50 turn out when NS(=O)(=O)c1ccc2c(c1)C(O)C(C1c3ccccc3-c3cncn31)CC2 (single isomer, unassigned) [Example 105f] was run?
A: The EC50 was 16 µM.
